# Laboratory results from ChEMBL document CHEMBL1201862, “PubChem BioAssay data set” (2004).
#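 96-well plates; 48 h exposure; 5 concentrations. Endpoints by linear interpolation between flanking doses. Not reached: highest tested concentration assigned. The concentration for 50% growth inhibition is given as GI50.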 Activity calls are given as the source filed them. Rule as the data show it: active = GI50 up to about 1.1 µM and inactive = higher.
# What was measured:
# Experiment in all cases: inhibition of tumour cell growth, NCI panel, 48 h
# [1] = test system: SF-539
# [2] = test system: HOP-62
# [3] = test system: UACC-257
# [4] = test system: MDA-MB-231
# [5] = test system: SF-295
# [6] = test system: MCF7
# [7] = test system: OVCAR-8
# [8] = test system: MDA-N
# [9] = test system: TK-10
# [10] = test system: HOP-92
# [11] = test system: IGROV-1
# [12] = test system: COLO 205
# [13] = test system: OVCAR-3
# [14] = test system: HCT-116
# [15] = test system: SR
# [16] = test system: SK-MEL-28
# [17] = test system: SK-OV-3
# [18] = test system: PC-3
# [19] = test system: UACC-62
# [20] = test system: SNB-19
Structure (SMILES),GI50 [1],GI50 [2],GI50 [3],GI50 [4],GI50 [5],GI50 [6],GI50 [7],GI50 [8],GI50 [9],GI50 [10],GI50 [11],GI50 [12],GI50 [13],GI50 [14],GI50 [15],GI50 [16],GI50 [17],GI50 [18],GI50 [19],GI50 [20]
O=C(OCc1c(-c2ccccc2)nn(-c2ccccc2)c1COC(=O)Oc1ccccc1)Oc1ccccc1,> 100 µM (inactive),> 100 µM (inactive),> 100 µM (inactive),> 100 µM (inactive),> 100 µM (inactive),> 100 µM (inactive),> 100 µM (inactive),> 100 µM (inactive),> 100 µM (inactive),> 100 µM (inactive),> 100 µM (inactive),> 100 µM (inactive),> 100 µM (inactive),> 100 µM (inactive),> 100 µM (inactive),> 100 µM (inactive),> 100 µM (inactive),> 100 µM (inactive),> 100 µM (inactive),> 100 µM (inactive)
COC1/C=C/C(C)C(OC)CC(O)/C=C/C(C)C(C(C)C(OC)C(C)CCC(=O)C(C)C(C/C=C/N(C)C=O)OC)OC(=O)/C=C/C=C(\C)CC(OC)C(OC)C2=CC(=O)O[C@@H](C(C)C(OC)C1)[C@H]2O (stereo not given in full),0.0313 µM (active),0.0324 µM (active),0.0448 µM (active),0.0366 µM (active),0.0345 µM (active),0.0251 µM (active),0.0514 µM (active),0.0507 µM (active),0.0548 µM (active),0.0327 µM (active),0.0341 µM (active),0.0205 µM (active),0.00596 µM (active),0.00847 µM (active),0.0617 µM (active),0.0446 µM (active),0.0436 µM (active),0.0337 µM (active),0.0571 µM (active),0.0519 µM (active)
CN(CCC#N)c1ccc(/C=C2\SC(=S)NC2=O)cc1,49.4 µM (inactive),41.3 µM (inactive),> 100 µM (inactive),56 µM (inactive),35.9 µM (inactive),46.6 µM (inactive),> 100 µM (inactive),53.6 µM (inactive),49.7 µM (inactive),22.6 µM (inactive),> 100 µM (inactive),48.2 µM (inactive),27.7 µM (inactive),29.2 µM (inactive),24.3 µM (inactive),40.1 µM (inactive),71.9 µM (inactive),34.3 µM (inactive),19.8 µM (inactive),71 µM (inactive)
CSc1nc(C)c2c(n1)SCC2,> 10 µM (inactive),> 10 µM (inactive),> 10 µM (inactive),> 10 µM (inactive),> 10 µM (inactive),> 10 µM (inactive),> 10 µM (inactive),> 10 µM (inactive),> 10 µM (inactive),> 10 µM (inactive),> 10 µM (inactive),> 10 µM (inactive),> 10 µM (inactive),> 10 µM (inactive),> 10 µM (inactive),> 10 µM (inactive),> 10 µM (inactive),> 10 µM (inactive),> 10 µM (inactive),> 10 µM (inactive)
CN1C(=O)c2ccccc2OC12C=Cc1c(ccc3ccccc13)O2 (stereo not given),5.58 µM (inactive),4.29 µM (inactive),8.3 µM (inactive),13.1 µM (inactive),2.45 µM (inactive),4.4 µM (inactive),3.74 µM (inactive),2.36 µM (inactive),7.82 µM (inactive),1.85 µM (inactive),3.5 µM (inactive),3.31 µM (inactive),4.03 µM (inactive),4.02 µM (inactive),3.48 µM (inactive),14.2 µM (inactive),5.78 µM (inactive),3.27 µM (inactive),5.19 µM (inactive),4.49 µM (inactive)
CN(C)CCCNc1ccc2ncn3c4ccc(O)cc4c(=O)c1c23,0.506 µM (active),0.538 µM (active),8.09 µM (inactive),7.46 µM (inactive),0.708 µM (active),0.0964 µM (active),1.07 µM (active),4.48 µM (inactive),1.76 µM (inactive),0.705 µM (active),0.577 µM (active),1.11 µM (active),3.58 µM (inactive),0.458 µM (active),< 0.0189 µM (active),4.71 µM (inactive),0.321 µM (active),1.83 µM (inactive),1.2 µM (inactive),1.24 µM (inactive)
Nc1ncnc2c1ncn2C1OC(C(=O)OCCO)C(O)C1O (stereo not given),> 100 µM (inactive),> 100 µM (inactive),> 100 µM (inactive),> 100 µM (inactive),> 100 µM (inactive),> 100 µM (inactive),> 100 µM (inactive),> 100 µM (inactive),> 100 µM (inactive),> 100 µM (inactive),> 100 µM (inactive),> 100 µM (inactive),> 100 µM (inactive),> 100 µM (inactive),> 100 µM (inactive),> 100 µM (inactive),> 100 µM (inactive),> 100 µM (inactive),> 100 µM (inactive),> 100 µM (inactive)
